C[C@@]12C[C@H]3OC(=O)[C@@H]1CO[C@]14O[C@@]5([C@H]2C1=O)[C@@]3(C)OC(=O)[C@@]5(O)CC[C@H]1[C@H]4C[C@@H](O)[C@@]2(O)CC=CC(=O)[C@]12C
solubility (mole fraction)
Details	in acetone	in chloroform	in ethanol	in ethyl acetate	in methanol	in water
283.2 K	0.0173	0.0046	0.0039	0.003	0.0081	0.0012
293.2 K	0.022	0.0047	0.0047	0.0032	0.0092	0.0021
298.2 K	0.0238	0.0049	0.0058	0.0036	0.0101	0.0027
303.2 K	0.0265	0.0053	0.0071	0.0042	0.0109	0.0028
308.2 K	0.0286	0.0058	0.0089	0.0052	0.0122	0.0029
313.2 K	0.0309	0.006	0.0107	0.0059	0.0159	0.003

— BigSolDB 2.1
